Experiments:
[1] = Inhibition of SCD in human NCI-H2122 cells expressing CYP4F11 assessed as reduction in cell viability incubated for 96 hrs by cell titer Glo reagent based assay
[2] = Inhibition of SCD in human H2009 cells non-expressing CYP4F11 assessed as reduction in cell viability incubated for 96 hrs by cell titer Glo reagent based assay
[3] = Inhibition of SCD in human NCI-H1155 cells non-expressing CYP4F11 assessed as reduction in cell viability incubated for 96 hrs by cell titer Glo reagent based assay

| SMILES | IC50 [1] [µM] | IC50 [2] [µM] | IC50 [3] [µM] |
| --- | --- | --- | --- |
| O=C(Nc1nccs1)c1ccc(C(=O)c2ccccc2)cc1 | 33 | > 50 | – |
| O=C(Nc1nc(-c2ccccc2)cs1)c1ccc(C(=O)c2ccccc2)cc1 | 4.7 | 14.9 | – |
| COc1ccc(C(=O)Nc2nc3cc(N)ccc3s2)cc1 | > 50 | > 50 | – |
| COc1ccc2nc(NS(=O)(=O)c3ccccc3)sc2c1 | > 50 | – | – |
| Cc1nnc(-c2ccc(N3CCC(Oc4cc(F)ccc4Cl)CC3)nn2)o1 | < 0.01 | – | < 0.01 |
| O=C(Nc1ncc(-c2ccccc2)s1)c1ccc(C(=O)c2ccccc2)cc1 | 5.8 | 5 | – |
| O=C(Nc1nc2ccccc2o1)c1ccc(C(=O)c2ccccc2)cc1 | 43 | – | – |
| O=C(Nc1nc2ccccc2[nH]1)c1ccc(C(=O)c2ccccc2)cc1 | 0.042 | 1.8 | – |
| COc1ccc2nc(NC(=O)CCc3ccccc3)sc2c1 | > 50 | – | – |
| COc1ccc2nc(NC(=O)c3ccc(C(=O)N4CCN(C)CC4)cc3)sc2c1 | > 50 | > 50 | – |
| COc1ccc2nc(NC(=O)c3cccnc3)sc2c1 | 1.1 | 37 | – |
| O=C(Nc1nc2ccccc2s1)c1cccnc1 | 0.26 | > 50 | – |

From BindingDB's records for doi:10.1021/acs.jmedchem.0c00899 (Ut Southwestern Medical Center, 2020)
